Data reported in US5232917A, “Methods, compositions, and compounds for allosteric modulation of the GABA receptor by members of the androstane and pregnane series” (priority 1991, dated 1993).

Columns and labels:
[1] = system: (+)bicuculline-induced seizures; settings: dissolved in DMSO; Belelli et al., 1989; cited from earlier work
[2] = system: metrazol-induced convulsions; settings: dissolved in DMSO; Belelli et al., 1989; cited from earlier work
[3] = dissolved in DMSO; Belelli et al., 1989; cited from earlier work
[4] = system: sedative potential (rotorod); test: Rotorod test; settings: rotorod ED50 vs (+)bicuculline ED50
Experimental: Adult male CFI mice (20-30g) were used in these studies. […] Ten to twelve mice were used per dose of test drug. […] Sedative potential was determined by a rotorod test where the number of mice staying on a rotating (6 rpm) rod for ≥1 min. in each of three trials was determined.

[5] = system: punished responding; test: Vogel conflict paradigm (lick suppression); assay type: in vivo, mice (male N.I.H. Swiss-Webster); settings: 3α-OH-DHP 20 mg/kg
Text: An Anxio-Monitor (Omnitech Electronics, Columbus, Ohio) was used for measuring lick suppression. The testing chamber consisted of a clear plexiglass box (29 cm×29 cm×23 cm) with a metal drinking tube located 2.5 cm from the floor and extending 2 cm into the box. The shock was applied through the drinking spout and was controlled by the Anxio-Monitor. […] The reinforcer was 0.1M sucrose.
The conflict test procedure described by Vogel et al. (1980) was employed. This procedure is a modification of the original lick suppression test first described by Vogel et al. (1971). After 24 hr. of water deprivation,mice were allowed to explore the test apparatus and drink without punishment for 10 min. or 100 licks. […] Mice were allowed unpunished access to the drinking tube for 20 licks, thereafter, every 10th lick was punished with 0.1 mA shock. The test duration was 5 min.
The vehicle control data were analyzed across test days using an 1-way analysis of variance (ANOVA). […] The dose-response curves were then analyzed using an 1-way ANOVA, followed by Dunnett's t-test for individual comparisons between doses and control. The open-field and habituated locomotor data were analyzed using ANOVA followed by Dunnett's t-test. […] All data is expressed as the mean±S.E.M.

CC(=O)[C@H]1CC[C@H]2[C@@H]3CC[C@H]4C[C@H](O)CC[C@]4(C)[C@H]3CC[C@]12C [Example 3α-OH-DHP, 3α-hydroxy-5α-pregnan-20-one]
ED50 BIC (bicuculline) [1]: 4.1 ± 1.7 mg/kg
ED50 MTZ (metrazol) [2]: 18.8 ± 1.1 mg/kg
LD50 [3]: > 500 mg/kg
sedative liability at anticonvulsant doses [4]: low
increase in number of shocks received vs controls ([5]; 5 min session, p=0.01, FIG. 14): 235.6%
number of shocks received ([5]; controls […]): 13.9±2.1
